Entries after “also recorded” stand apart in the source; their conditions may differ.
Tests used:
[1] = system: anti-GBM nephrotoxic serum-induced crescentic glomerulonephritis (RPGN) in mice; assay: Survival in accelerated anti-GBM crescentic glomerulonephritis; settings: AG1478-treated HB-EGF(+/+) mice
Procedure: Briefly, WT and HB-EGF−/− mice received subcutaneous injection with 200 μg normal sheep IgG (100 μl in each flank of normal sheep IgG (Sigma) diluted to 1 mg/ml in a solution of 50% freund complete adjuvent and 50% saline). Six days later (day 1), glomerulonephritis (GN) was induced by intravenous injection of 50 μl sheep anti-glomerular basement membrane (GBM) serum diluted to 7 mg/ml in saline. Serum injection was repeated twice (days 2 and 3), with serum dilution increased to 70 mg/ml. On days 0, 1, 2, 3, 5 and 7, mice received intraperitoneal injection of either AG1478 (LC Laboratories), a pharmacological inhibitor of EGFR tyrosine kinase activity (30 mg.kg-1.day-1 in 100 μl of a saline solution with 1% carboxymethylcellulose (CMC) and 10% DMSO), or 100 μl of saline solution with 1% CMC and 10% DMSO as control. On day 8, mice were sacrified after body weight measurement and 12 hours urines collection with metabolic cages. […] On day 14, mice were sacrified. Blood was obtained from mice by aortic catheterization. Kidneys from each mouse were processed for immunohistochemistry, protein and mRNA analysis, and the remaining half-kidney fixed in 10% neutral-buffered formalin for histological study.

[2] = system: anti-GBM nephrotoxic serum-induced crescentic glomerulonephritis (RPGN) in mice; assay: Assessment of ascitis, renal function and albuminuria in accelerated anti-GBM crescentic glomerulonephritis; assay type: in vivo, mouse
Procedure: Assessment of […], renal function and albuminuria: […] Stage 2 to 4 were associated with clinically evident […] weight gain before sacrifice. Serum and urinary creatinine, and blood urea nitrogen (BUN) were quantified spectrophotometrically using a colorimetric method. Urinary albumin excretion was measured using a specific ELISA assay for quantitative determination of albumin inmouse urine (CellTrend GmbH).

[3] = molecular target: T1, EGFR (Mus musculus, UniProt Q01279); assay: Phosphorylation of EGFR in renal cortex/glomeruli (western blot, immunofluorescence) during experimental RPGN; assay type: in vivo
T1 construct: Proteins were extracted from kidneys using a lysis buffer; from tissue; host or cells: mouse kidney (renal cortex, glomeruli); wild type and HB-EGF-/- mice on mixed C57BL/6J x 129 background
T1 sequence (Q01279 25-1210): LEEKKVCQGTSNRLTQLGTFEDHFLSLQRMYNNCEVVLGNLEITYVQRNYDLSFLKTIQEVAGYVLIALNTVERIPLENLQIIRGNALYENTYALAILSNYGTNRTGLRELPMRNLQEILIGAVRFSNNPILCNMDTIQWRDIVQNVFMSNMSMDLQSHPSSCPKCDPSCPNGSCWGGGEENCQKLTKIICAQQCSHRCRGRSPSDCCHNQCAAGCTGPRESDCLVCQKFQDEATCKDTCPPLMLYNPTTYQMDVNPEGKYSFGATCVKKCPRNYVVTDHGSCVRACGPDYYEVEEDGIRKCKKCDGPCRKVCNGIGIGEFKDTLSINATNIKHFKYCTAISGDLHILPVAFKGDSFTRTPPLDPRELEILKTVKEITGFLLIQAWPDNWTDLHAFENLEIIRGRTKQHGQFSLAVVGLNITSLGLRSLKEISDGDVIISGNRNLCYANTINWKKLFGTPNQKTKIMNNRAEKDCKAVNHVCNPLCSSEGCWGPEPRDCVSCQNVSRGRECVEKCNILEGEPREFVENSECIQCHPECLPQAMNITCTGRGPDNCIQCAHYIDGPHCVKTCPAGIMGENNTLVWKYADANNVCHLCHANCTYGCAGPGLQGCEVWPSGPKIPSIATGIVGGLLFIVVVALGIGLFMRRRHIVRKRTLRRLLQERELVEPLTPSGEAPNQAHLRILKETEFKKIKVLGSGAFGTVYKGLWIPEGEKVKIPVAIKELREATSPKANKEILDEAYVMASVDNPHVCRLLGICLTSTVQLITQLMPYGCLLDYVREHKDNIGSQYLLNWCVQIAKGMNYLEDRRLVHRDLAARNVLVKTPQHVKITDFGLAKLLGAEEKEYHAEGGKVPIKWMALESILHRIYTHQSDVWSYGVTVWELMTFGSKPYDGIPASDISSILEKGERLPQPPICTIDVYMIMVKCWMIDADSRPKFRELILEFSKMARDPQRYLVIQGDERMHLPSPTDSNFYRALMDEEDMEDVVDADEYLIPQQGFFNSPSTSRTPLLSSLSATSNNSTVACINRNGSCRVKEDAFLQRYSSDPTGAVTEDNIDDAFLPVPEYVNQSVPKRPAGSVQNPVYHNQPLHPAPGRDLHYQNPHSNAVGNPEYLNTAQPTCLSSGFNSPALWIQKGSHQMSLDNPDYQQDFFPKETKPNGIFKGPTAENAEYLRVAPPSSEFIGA
Procedure: On day 14, mice were sacrified.
For immunofluorescence in mouse tissues, cryostat sections of 4 μm were immediately fixed in acetone, washed in PBS and then incubated with antibodies in a humid incubator. Deposits of mouse IgG in kidney were evaluated using FITC rat anti-mouse IgG (FI2000, Vector) (1:100 dilution, incubation for 1 hour at room temperature).
Western blot analysis: Proteins were extracted from kidneys using a lysis buffer (Phosphosafe extraction buffer, Novagen) and quantified according to Bradford's method. […] Immunoblotting was performed using the rabbit anti phospho-EGFR (Cell Signaling) diluted 1:1,000 or a rabbit anti-EGFR diluted 1:5,000 (Cell Signaling) as control for lane loading. Then, horseradish peroxidase-linked donkey secondary antibody (Amersham Pharmacia Biotech) diluted 1:2,000 was added and revelation was subsequently made using ECL plus kit (Amersham Pharmacia Biotech) on autoradiography film, followed by densitometric analysis.

[4] = system: anti-GBM nephrotoxic serum-induced crescentic glomerulonephritis (RPGN) in mice; assay: Histopathology and immunohistochemistry (crescentic glomeruli, CD3 positive cells) in accelerated anti-GBM crescentic glomerulonephritis; assay type: in vivo, mouse
[5] = day 8, AG1478 30 mg/kg i.p., wild type mice, 30 mg/kg
[6] = day 14, erlotinib preventive (d0-14) or curative (d4-14) protocol

SMILES | death within 8 days of RPGN [1] | incidence and severity of asciitis ([2]; day 8, AG1478 30 mg/kg i.p., vs vehicle) | albumin urinary leakage, renal function / renal failure (in words) ([2]; day 8, AG1478 30 mg/kg i.p., 30 mg/kg) | albuminuria ([2]; day 8, AG1478 30 mg/kg/day i.p., n=6) | BUN ([2]; day 8, AG1478 30 mg/kg/day i.p., n=6, in mM) | phosphorylation of EGFR (in words) ([3]; AG1478 i.p. in wild type mice vs vehicle only, day 8) | pEGFR signal in glomeruli (immunofluorescence) ([3]; day 8 post NTS, AG1478 30 mg/kg/day i.p.) | phosphorylation of EGFR blunted (fold) ([3]; renal cortex, day 8 post NTS, AG1478 30 mg/kg/day i.p. vs vehicle) | pEFGR/EGFR ratio ([3]; renal cortex, western blot, day 8 post NTS, AG1478 30 mg/kg/day i.p., wild type mice, n=6) | crescent formation / renal lesions (in words) [4, 5] | periglomerular and interstitial CD3+ cell infiltrates [4, 5] | % of crescentic glomeruli ([4]; day 8 after induction of RPGN, AG1478 30 mg/kg/day i.p., n=6) | blood urea nitrogen ([2]; day 14, erlotinib 100 mg/kg/day per gavage, preventive, n=9) | renal failure / blood urea nitrogen levels (in words) [2, 6] | necrotic glomerular lesions, cellular crescents, tubular proteinaceous casts and diffuse CD3 positive cells infiltrates ([4]; day 14, delayed erlotinib from day 4 to day 14, Masson trichrome staining) | proportion of crescentic glomeruli ([4]; day 14, erlotinib 100 mg/kg/day per gavage, preventive (12 hours prior to anti-GBM serum), n=9) | development of glomerular injury (in words) [4, 6]
COc1cc2ncnc(Nc3cccc(Cl)c3)c2cc1OC [AG1478, 4-(3-Chloroanilino)-6,7-dimethoxyquinazoline] | no AG1478-treated HB-EGF(+/+) mice died | lower incidence and severity of asciitis | prevents albumin urinary leakage and renal failure; also recorded: renal function was preserved | 8.9±2.3 g/mmol creatinine | 6.39±2.0 | prevented the phosphorylation of EGFR | faint or no signal was detectable | ~9 fold | 11 % of vehicle only-treated mice | reduces crescent formation; also recorded: dramatically reduced the development of renal lesions | reduces crescent formation and T cells infiltrates; also recorded: absent; also recorded: more effective in preventing cell infiltrate than HB-EGF deficiency | 6.8±1.7% | – | – | – | – | –
C#Cc1cccc(Nc2ncnc3cc(OCCOC)c(OCCOC)cc23)c1.Cl [erlotinib, [6,7-bis(2-methoxyethoxy)-4-quinazolin-4-yl]-(3-ethynylphenyl)amine] | – | – | – | – | – | – | – | – | – | – | – | – | 3.8 ± 0.4 mmol/L | prevented renal failure with normal blood urea nitrogen levels | blunted | 25.0±6.9 ° A) | blunted or stopped the development of glomerular injury

Source: patent publication US8198266B2, “Use of an EGFR antagonist for the treatment of glomerolonephritis” (INSERM (Institut National de la Sante et de la Recherche …, priority 2006, dated 2012)
